Results on 16 molecules are retold here after patent publication US20170210723A1, “MOLECULES HAVING PESTICIDAL UTILITY, AND INTERMEDIATES, COMPOSITIONS, AND PROCESSES, RELATED THERETO” (priority 2016, published 2017).

What all share (format): in vivo
For series [1], the system named is Cabbage Looper (Trichoplusia ni). The experiment in a line: Bioassays on CL, 128-well diet tray assay. Conditions: Trichoplusia ni; for mortality at 50 µg/cm2: 168 h, 50 μg/cm^2 on artificial diet, second instar larvae, five to seven days, read-out: CL % Control (or Mortality) rating. The procedure, abridged:
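Second-instar larvae (1–5 per well) were fed diet surface-treated with 50 μg/cm^2 compound, eight wells each. After five to seven days at 25° C. under a 14:10 photoperiod, mortality was scored per well and the eight wells averaged.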

The subject of series [2] is Beet Armyworm (Spodoptera exigua). Nature of the series: Bioassays on BAW, 128-well diet tray assay. The settings on record: Spodoptera exigua; for mortality at 50 µg/cm2: 168 h, 50 μg/cm^2 on artificial diet, second instar larvae, five to seven days, read-out: BAW % Control (or Mortality) rating.
The subject of series [3] is Yellow Fever Mosquito (Aedes aegypti). The experiment in a line: Bioassays on Yellow Fever Mosquito larvae, 96-well plate. The settings on record: from 4000 ppm DMSO master plate, about 1 day-old larvae, 3 days. How it is done: Master plates containing 400 μg of a molecule dissolved in 100 μL of dimethyl sulfoxide (DMSO) (equivalent to a 4000 ppm solution) are used. A master plate of assembled molecules contains 15 μL per well. To this plate, 135 μL of a 90:10 water:acetone mixture is added to each well. A robot (Biomek® NXP Laboratory Automation Workstation) is programmed to dispense 15 μL aspirations from the master plate into an empty 96-well shallow plate (“daughter” plate). There are 6 reps (“daughter” plates) created per master. The created daughter plates are then immediately infested with YFM larvae.
The day before plates are to be treated, mosquito eggs are placed in Millipore water containing liver powder to begin hatching (4 g. into 400 mL). After the daughter plates are created using the robot, they are infested with 220 μL of the liver powder/larval mosquito mixture (about 1 day-old larvae). After plates are infested with mosquito larvae, a non-evaporative lid is used to cover the plate to reduce drying. Plates are held at room temperature for 3 days prior to grading. After 3 days, each well is observed and scored based on mortality. The results are indicated in the table entitled “Table ABC: Biological Results” (See Table Section). AGRICULTURALLY ACCEPTABLE ACID ADDITION SALTS, SALT DERIVATIVES, SOLVATES, ESTER DERIVATIVES, POLYMORPHS, ISOTOPES, AND RADIONUCLIDES

For `CSCC[C@@H](NC(=O)c1ccc(/C=C/C(c2cc(Cl)c(Cl)c(Cl)c2)C(F)(F)F)cc1C(F)(F)F)C(=O)NCC(F)(F)F` (stereo partly drawn) [F28, N—((R)-4-(Methylthio)-1-oxo-1-((2,2,2-trifluoroethyl)amino)butan-2-yl)-4-((E)-4,4,4-trifluoro-3-(3,4,5-trichlorophenyl)but-1-en-1-yl)-2-(trifluoromethyl)benzamide], the mortality at 50 µg/cm2 in series [1] and in series [2] was 50 to 100% throughout. For the same molecule, the “YFM % Control (or Mortality) rating” value in series [3] is on record as “A (80-100)”.
Turning to `C[C@H](CSCC(F)(F)F)NC(=O)c1ccc(/C=C/C(c2cc(Cl)c(F)c(Cl)c2)C(F)(F)F)cc1Br` (stereo partly drawn) [F34, 2-Bromo-4-((E)-3-(3,5-dichloro-4-fluorophenyl)-4,4,4-trifluorobut-1-en-1-yl)-N—((R)-1-((2,2,2-trifluoroethyl)thio)propan-2-yl)benzamide], the mortality at 50 µg/cm2 in series [1] and in series [2] was 50 to 100% each time. In addition, the “YFM % Control (or Mortality) rating” value in series [3] is listed as “A (80-100)”.
Turning to `C[C@H](CS(=O)(=O)CC(F)(F)F)NC(=O)c1ccc(/C=C/C(c2cc(Cl)c(F)c(Cl)c2)C(F)(F)F)cc1C(F)(F)F` (stereo partly drawn) [F36, 4-((E)-3-(3,5-Dichloro-4-fluorophenyl)-4,4,4-trifluorobut-1-en-1-yl)-N—((R)-1-((2,2,2-trifluoroethyl)sulfonyl)propan-2-yl)-2-(trifluoromethyl)benzamide], the mortality at 50 µg/cm2 in series [1] and in series [2] was 50 to 100% throughout. Besides, the “YFM % Control (or Mortality) rating” value in series [3] was “A (80-100)”.
Take `C[C@H](C[S+]([O-])CC(F)(F)F)NC(=O)c1ccc(/C=C/C(c2cc(Cl)c(F)c(Cl)c2)C(F)(F)F)cc1C(F)(F)F` (stereo partly drawn) [F37]: the mortality at 50 µg/cm2 in series [1] and in series [2] was 50 to 100% each time. For the same molecule, in series [3], the “YFM % Control (or Mortality) rating” value is listed as “A (80-100)”.
Take `C[C@H](C[S+]([O-])CC(F)(F)F)NC(=O)c1ccc(/C=C/C(c2cc(Cl)c(Cl)c(Cl)c2)C(F)(F)F)cc1Br` (stereo partly drawn) [F39, 2-Bromo-4-((E)-4,4,4-trifluoro-3-(3,4,5-trichlorophenyl)but-1-en-1-yl)-N-((2R)-1-((2,2,2-trifluoroethyl)sulfinyl)propan-2-yl)benzamide]: the mortality at 50 µg/cm2 in series [1] and in series [2] was 50 to 100% in each case. The “YFM % Control (or Mortality) rating” value in series [3] is reported as “A (80-100)”.
Turning to `Cc1cc(/C=C/C(c2cc(Cl)c(Cl)c(Cl)c2)C(F)(F)F)ccc1C(=O)N[C@H](C)CS(=O)(=O)CC(F)(F)F` (stereo partly drawn) [F40, 2-Methyl-4-((E)-4,4,4-trifluoro-3-(3,4,5-trichlorophenyl)but-1-en-1-yl)-N—((R)-1-((2,2,2-trifluoroethyl)sulfonyl)propan-2-yl)benzamide], the mortality at 50 µg/cm2 in series [1] and in series [2] was 50 to 100% in each case. Further, the mortality at 0.05 µg/cm2 in series [1] (0.05 μg/cm^2, read-out: CL Percent control (or mortality)) turned out to be 100%; in series [2] (0.05 μg/cm^2, read-out: BAW Percent control (or mortality)) it was 60%. In addition, the mortality at 0.5 µg/cm2 in series [1] (0.5 μg/cm^2, read-out: CL Percent control (or mortality)) amounted to 100%; in series [2] (0.5 μg/cm^2, read-out: BAW Percent control (or mortality)), 100%. For the same molecule, the mortality at 5 µg/cm2 in series [1] (5 μg/cm^2, read-out: CL Percent control (or mortality)) turned out to be 100%; in series [2] (5 μg/cm^2, read-out: BAW Percent control (or mortality)), 100%. Besides, in series [3], the “YFM % Control (or Mortality) rating” value is on record as “A (80-100)”.
On to `C[C@H](CSCC(F)(F)F)NC(=O)c1ccc(/C=C/C(c2cc(Br)c(Cl)c(Br)c2)C(F)(F)F)cc1C(F)(F)F` (stereo partly drawn) [F41, 4-((E)-3-(3,5-Dibromo-4-chlorophenyl)-4,4,4-trifluorobut-1-en-1-yl)-N—((R)-1-((2,2,2-trifluoroethyl)thio)propan-2-yl)-2-(trifluoromethyl)benzamide], for which the mortality at 50 µg/cm2 in series [1] and in series [2] was 50 to 100% each time. Also, the “YFM % Control (or Mortality) rating” value in series [3] was “A (80-100)”.
As to `C[C@H](C[S+]([O-])CC(F)(F)F)NC(=O)c1ccc(/C=C/C(c2cc(Br)c(Cl)c(Br)c2)C(F)(F)F)cc1C(F)(F)F` (stereo partly drawn) [F42, 4-((E)-3-(3,5-Dibromo-4-chlorophenyl)-4,4,4-trifluorobut-1-en-1-yl)-N-((2R)-1-((2,2,2-trifluoroethyl)sulfinyl)propan-2-yl)-2-(trifluoromethyl)benzamide], the mortality at 50 µg/cm2 in series [1] and in series [2] was 50 to 100% each time. Moreover, the “YFM % Control (or Mortality) rating” value in series [3] was “A (80-100)”.
With `CC(C)(CSCC(F)(F)F)NC(=O)c1ccc(/C=C/C(c2cc(Cl)c(Cl)c(Cl)c2)C(F)(F)F)cc1C(F)(F)F` (stereo not drawn) [F44, (E)-N-(2-methyl-1-((2,2,2-trifluoroethyl)thio)propan-2-yl)-4-(4,4,4-trifluoro-3-(3,4,5-trichlorophenyl)but-1-en-1-yl)-2-(trifluoromethyl)benzamide], the mortality at 50 µg/cm2 in series [1] and in series [2] was 50 to 100% throughout. Further, the “YFM % Control (or Mortality) rating” value in series [3] is given as “A (80-100)”.
Regarding `C[C@H](CS(=O)(=O)NCC(F)(F)F)NC(=O)c1ccc(/C=C/C(c2cc(Cl)c(Cl)c(Cl)c2)C(F)(F)F)cc1C(F)(F)F` (stereo partly drawn) [F45, 4-((E)-4,4,4-Trifluoro-3-(3,4,5-trichorophenyl)but-1-en-1-yl)-N—((R)-1-(N-(2,2,2-trifluoroethyl)sulfamoyl)propan-2-yl)-2-(trifluoromethyl)benzamide], the mortality at 50 µg/cm2 in series [1] and in series [2] was 50 to 100% throughout. Also, in series [3], the “YFM % Control (or Mortality) rating” value is reported as “A (80-100)”.
For the molecule `Cc1cc(/C=C/C(c2cc(Cl)c(Cl)c(Cl)c2)C(F)(F)F)ccc1C(=O)N[C@H](C)C[S+]([O-])CC(F)(F)F` (stereo partly drawn) [F46, 2-Methyl-4-((E)-4,4,4-trifluoro-3-(3,4,5-trichlorophenyl)but-1-en-1-yl)-N-((2R)-1-((2,2,2-trifluoroethyl)sulfinyl)propan-2-yl)benzamide], the mortality at 50 µg/cm2 in series [1] and in series [2] was 50 to 100% throughout. The “YFM % Control (or Mortality) rating” value in series [3] is “A (80-100)”.
On to `CC(C)(CS(=O)(=O)CC(F)(F)F)NC(=O)c1ccc(/C=C/C(c2cc(Cl)c(Cl)c(Cl)c2)C(F)(F)F)cc1C(F)(F)F` (stereo not drawn) [F48, (E)-N-(2-Methyl-1-((2,2,2-trifluoroethyl)sulfonyl)propan-2-yl)-4-(4,4,4-trifluoro-3-(3,4,5-trichlorophenyl)but-1-en-1-yl)-2-(trifluoromethyl)benzamide], for which the mortality at 50 µg/cm2 in series [1] and in series [2] was 50 to 100% each time. Further, the “YFM % Control (or Mortality) rating” value in series [3] is on record as “A (80-100)”.
With `C[C@H](C[S+]([O-])CC(F)(F)F)NC(=O)c1ccc(/C=C/C(c2cc(Cl)c(Cl)c(Cl)c2)C(F)(F)F)cc1Cl` (stereo partly drawn) [F50, 2-Chloro-4-((E)-4,4,4-trifluoro-3-(3,4,5-trichlorophenyl)but-1-en-1-yl)-N-((2R)-1-((2,2,2-trifluoroethyl)sulfinyl)propan-2-yl)benzamide], the mortality at 50 µg/cm2 in series [1] and in series [2] was 50 to 100% throughout. Moreover, the “YFM % Control (or Mortality) rating” value in series [3] is listed as “A (80-100)”.
In the case of `Cc1cc(/C=C/C(c2cc(Cl)c(Cl)c(Cl)c2)C(F)(F)F)ccc1C(=O)N[C@H](C)CSCC(F)(F)F` (stereo partly drawn) [F51, 2-Methyl-4-((E)-4,4,4-trifluoro-3-(3,4,5-trichlorophenyl)but-1-en-1-yl)-N—((R)-1-((2,2,2-trifluoroethyl)thio)propan-2-yl)benzamide], the mortality at 50 µg/cm2 in series [1] and in series [2] was 50 to 100% in each case. In series [3], the “YFM % Control (or Mortality) rating” value is on record as “A (80-100)”.
As for `C[C@H](CS(=O)(=O)CC(F)(F)F)NC(=O)c1ccc(/C=C/C(c2cc(Cl)c(F)c(Cl)c2)C(F)(F)F)cc1Br` (stereo partly drawn) [F52, 2-Bromo-4-((E)-3-(3,5-dichloro-4-fluorophenyl)-4,4,4-trifluorobut-1-en-1-yl)-N—((R)-1-((2,2,2-trifluoroethyl)sulfonyl)propan-2-yl)benzamide], the mortality at 50 µg/cm2 in series [1] and in series [2] was 50 to 100% throughout. Moreover, the “YFM % Control (or Mortality) rating” value in series [3] is reported as “A (80-100)”.
In the case of `C[C@H](C[S+]([O-])CC(F)(F)F)NC(=O)c1ccc(/C=C/C(c2cc(Cl)c(C#N)c(Cl)c2)C(F)(F)F)cc1C(F)(F)F` (stereo partly drawn) [F53, 4-((E)-3-(3,5-Dichloro-4-cyanophenyl)-4,4,4-trifluorobut-1-en-1-yl)-N-((2R)-1-((2,2,2-trifluoroethyl)sulfinyl)propan-2-yl)-2-(trifluoromethyl)benzamide], the mortality at 50 µg/cm2 in series [1] and in series [2] was 50 to 100% in each case. Moreover, in series [3], the “YFM % Control (or Mortality) rating” value was “A (80-100)”.
